Source: patent US20100331297A1, “MODULATION OF PROTEIN TRAFFICKING” (FOLDRX PHARMACEUTICALS, INC., priority 2007, published 2010)

Legend:
Type in all cases: cell-based
ypt1^ts cells = test: Rescue of growth of ypt1^ts mutant yeast (OD600); settings: Saccharomyces cerevisiae, read-out: Ypt1-ts MRC (Minimum Rescue Concentration), ypt1^ts cells, 35° C. and 37° C., OD600; multiple results separated by a comma
Excerpt: The activity of the compounds as modulators of protein trafficking may be measured in the assays described herein that evaluate the ability of a compound to rescue an impairment in protein trafficking. For example, the yeast mutant cell line ypt1^ts can be used to identify compounds that rescue cells from the lethal phenotype of a mutant YPT1 allele (see, e.g., Examples and Schmitt et al. (1988) Cell 53:635-47). The activity may be measured, for example, in a whole yeast cell assay using 384-well screening protocol and an optical density measurement.
The yeast mutant cell line ypt1^ts suppresses, in a temperature dependent fashion, the dominant-lethal phenotype of a mutant YPT1 allele (Schmitt et al. (1988) Cell 53:635-47). The yeast mutant cell line ypt1^ts contains an allele of YPT1 that has two point mutations: one that changes an asparagine at position 121 to a isoleucine (N121I) and another that changes an alanine at position 161 to a valine (A161V). The N121I mutation causes dominant lethality by itself, but lethality is suppressed by the second mutation, resulting in a recessive loss of function phenotype at the restrictive temperatures. ypt1^ts cells grow normally at temperatures up to 25° C., but are growth arrested at 37° C. (Id.).
Compounds were screened to assess their ability to restore growth of ypt1^ts cells. The effect of the compounds was measured on ypt1^ts cells cultured at room temperature (permissive temperature), 37° C. (non-permissive temperature), and 35° C. (semi-permissive temperature).
To determine if the test compounds could rescue the ypt1^ts mutant phenotype, ypt1^ts cells were grown overnight in synthetic complete (SC) media supplemented with 2% glucose at room temperature. Log phase cells were diluted into SC 2% glucose media to an OD600 of 0.003. 100 μL of this culture was then aliquoted into each well of 96-well flat bottom microtiter plates. 1 μL of the test compounds dissolved in DMSO (at a concentration range from 5 mM-0.005 mM) or of DMSO alone was added to each well (50 μM-0.05 μM final concentration in 1% DMSO). Plates were mixed by vortexing and incubated at 35° C. and 37° C. Compound rescue of the ypt1^ts temperature sensitive defect was assessed by measuring the OD600 (optical density at 600 nm; cell growth) of the cultures. Plates incubated at 35° C. were measured at 24 and 40 hours incubation time while plates grown at 37° C. were measured after 40 hours of incubation.
Assays monitoring the rescue of ypt1^ts mutants were performed using a vehicle, a positive control (calcium), and the compounds identified in Table II. Results in Table II corresponding to an MRC (Minimum Rescue Concentration) for ypt1^ts of greater than or equal to 50 micromolar are labeled +; of an MRC for ypt1^ts of 10-50 micromolar are labeled ++; and of an MRC for ypt1^ts of less than 10 micromolar are labeled +++. Multiple results for a particular compound are separated by a comma.

ΔF508 CFTR [1] = molecular target: T1, ΔF508 CFTR (Homo sapiens, UniProt P13569, DEL508-508); test: Corrector activity, YFP halide (iodide) quenching assay in FRT cells expressing ΔF508 CFTR; set-up: expressed in transfected cells; host or cells: Fischer rat thyroid (FRT) cells; settings: FRT cells ΔF508 CFTR/YFP, 24 hours with compound at 37° C., forskolin and genistein; read-out: Corrector EC50
T1 sequence (P13569 with tags, fused parts or gaps DEL508-508): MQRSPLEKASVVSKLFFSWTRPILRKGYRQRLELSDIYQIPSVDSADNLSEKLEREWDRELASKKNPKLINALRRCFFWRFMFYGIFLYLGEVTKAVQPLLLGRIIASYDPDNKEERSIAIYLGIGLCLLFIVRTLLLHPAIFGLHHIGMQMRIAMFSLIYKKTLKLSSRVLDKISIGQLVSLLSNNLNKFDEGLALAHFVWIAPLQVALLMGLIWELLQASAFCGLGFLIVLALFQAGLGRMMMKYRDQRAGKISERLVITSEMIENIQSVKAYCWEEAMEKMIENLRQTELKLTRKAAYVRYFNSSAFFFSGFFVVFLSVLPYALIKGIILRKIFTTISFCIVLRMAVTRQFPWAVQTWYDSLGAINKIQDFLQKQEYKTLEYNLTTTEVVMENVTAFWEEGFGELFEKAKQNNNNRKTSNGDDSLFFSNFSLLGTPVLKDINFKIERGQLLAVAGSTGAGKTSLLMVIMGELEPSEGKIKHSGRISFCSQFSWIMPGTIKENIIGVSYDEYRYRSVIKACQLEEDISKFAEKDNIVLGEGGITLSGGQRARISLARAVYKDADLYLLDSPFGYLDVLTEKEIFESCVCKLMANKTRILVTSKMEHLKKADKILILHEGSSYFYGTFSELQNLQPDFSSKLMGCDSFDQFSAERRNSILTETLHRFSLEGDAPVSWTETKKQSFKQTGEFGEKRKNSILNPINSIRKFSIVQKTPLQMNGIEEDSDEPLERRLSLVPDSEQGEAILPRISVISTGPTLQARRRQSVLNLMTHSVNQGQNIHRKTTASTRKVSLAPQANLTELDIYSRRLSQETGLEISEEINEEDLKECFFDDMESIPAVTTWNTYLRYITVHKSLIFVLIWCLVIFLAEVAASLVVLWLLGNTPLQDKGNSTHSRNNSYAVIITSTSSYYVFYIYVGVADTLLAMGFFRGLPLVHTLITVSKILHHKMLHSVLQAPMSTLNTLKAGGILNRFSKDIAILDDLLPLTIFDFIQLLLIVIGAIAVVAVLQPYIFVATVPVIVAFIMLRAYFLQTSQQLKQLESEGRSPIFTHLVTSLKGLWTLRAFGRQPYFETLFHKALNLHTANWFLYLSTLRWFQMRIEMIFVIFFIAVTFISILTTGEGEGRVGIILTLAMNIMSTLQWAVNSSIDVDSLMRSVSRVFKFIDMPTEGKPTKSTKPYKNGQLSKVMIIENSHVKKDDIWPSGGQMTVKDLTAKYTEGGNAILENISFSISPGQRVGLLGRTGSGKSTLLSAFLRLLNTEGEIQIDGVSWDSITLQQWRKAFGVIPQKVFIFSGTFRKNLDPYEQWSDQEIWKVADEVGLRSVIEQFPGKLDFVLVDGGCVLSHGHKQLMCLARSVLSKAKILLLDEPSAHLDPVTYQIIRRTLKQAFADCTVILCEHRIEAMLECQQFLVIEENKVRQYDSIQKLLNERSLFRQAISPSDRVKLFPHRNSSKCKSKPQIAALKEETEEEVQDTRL
How it was run: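 FRT cells co-expressing ΔF508 CFTR and halide-sensitive YFP were incubated 24 h at 37° C with compounds, then stimulated 30 min at 37° C in PBS with forskolin and genistein. Endpoint fluorescence after iodide injection was normalized to initial reading; EC50 from 4-parameter fit with bottom constrained to DMSO control.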

ΔF508 CFTR [2] = molecular target: T1, ΔF508 CFTR; test: Potentiator activity, YFP halide (iodide) quenching assay in FRT cells expressing ΔF508 CFTR, 27° C. pre-incubation; set-up: expressed in transfected cells; host or cells: Fischer rat thyroid (FRT) cells; settings: FRT cells ΔF508 CFTR/YFP, 24 hours at 27° C., compound with forskolin 30 min
How it was run: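 FRT cells stably co-expressing ΔF508 CFTR and halide-sensitive YFP, grown 24 h at 37° C. then 24 h at 27° C. to raise surface CFTR. Compounds in PBS with forskolin, 30 min at 37° C.; iodide injected and YFP quenching (ex 485/em 530 nm) followed. EC50 from normalized endpoint fluorescence.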

Row | Structure (SMILES) | EC50 (ΔF508 CFTR [1]) | EC50 (ΔF508 CFTR [2]) | minimal effective concentration (ypt1^ts cells)
1 | CC(C)(C)n1nc(-c2ccccc2Cl)c2c(N)ncnc21 [compound 7] | – | – | > 50 µM
2 | CCC(C)Cn1cc(-c2ccc(Cl)cc2)c2c(N)ncnc21 (centres unmarked) [compound 289] | 5 to 10 µM | 2 to 5 µM | –
3 | CCn1nc([S+]([O-])c2ccc(C)cc2)c2c(N)ncnc21 (centres unmarked) [compound 291] | > 15 µM | > 15 µM | –
4 | CCn1nc([S+]([O-])c2ccc(F)cc2F)c2c(N)ncnc21 (centres unmarked) [compound 292] | > 15 µM | > 15 µM | –
5 | O=[N+]([O-])c1ccc(Nc2ncnc3[nH]nc(-c4ccc(Cl)cc4)c23)nc1 [compound 293] | > 15 µM | > 15 µM | –
6 | CC(C)OC(=O)Nc1ncnc2c1c(-c1ccc(Cl)cc1)nn2C(C)(C)C [compound 300] | 5 to 10 µM | > 15 µM | –
7 | CCOC(=O)N1CCC(n2nc(-c3ccc(Cl)cc3)c3c(N)ncnc32)CC1 [compound 303] | > 15 µM | > 15 µM | –
8 | CC(=O)N1CC(n2cc(Cc3cccc4ccccc34)c3c(N)ncnc32)C1 [compound 306] | > 15 µM | > 15 µM | –
9 | Nc1ncnc2c1c(-c1ccc(Cl)cc1)nn2[C@@H]1CCOC1 [compound 307] | > 15 µM | > 15 µM | –
10 | CCn1nc(Nc2cccc3ccccc23)c2c(N)ncnc21 [compound 308] | 5 to 10 µM | > 15 µM | –
11 | COc1nn(C(C)(C)C)c2ncnc(N)c12 [compound 312, 1-tert-butyl-3-methoxy-1H-pyrazolo[3,4-d]pyrimidin-4-ylamine] | > 15 µM | 5 to 10 µM | –
12 | CCn1nc(Nc2ccc3c(c2)OC(F)(F)O3)c2c(N)ncnc21 [compound 313] | > 15 µM | 2 to 5 µM | –
13 | CN(c1ccccc1)c1nn(C2CCC2)c2ncnc(N)c12 [compound 314] | > 15 µM | > 15 µM | –
14 | CC(C)(C)Cn1cc(-c2ccc(Cl)cc2)c2c(N)ncnc21 [compound 316] | 5 to 10 µM | 2 to 5 µM | –
15 | CCn1nc(N(C)c2cccc(Cl)c2)c2c(N)ncnc21 [compound 317] | > 15 µM | > 15 µM | –
16 | Nc1ncnc2c1c(-c1ccc(Cl)cc1)nn2[C@H]1CCOC1 [compound 318] | > 15 µM | > 15 µM | –
17 | CCNC(=O)N1CCC(n2nc(-c3ccc(Cl)cc3)c3c(N)ncnc32)CC1 [compound 319] | > 15 µM | > 15 µM | –
18 | CCn1nc(Sc2cccc(C(F)(F)F)c2)c2c(N)ncnc21 [compound 323] | > 15 µM | < 2 µM | –

Row | Structure (SMILES) | EC50 (ΔF508 CFTR [1]) | EC50 (ΔF508 CFTR [2]) | minimal effective concentration (ypt1^ts cells)
19 | CCn1nc(Sc2ccccn2)c2c(N)ncnc21 [compound 324] | > 15 µM | > 15 µM | –
20 | CC(C)(C)n1nc(O)c2c(N)ncnc21 [compound 325, 4-amino-1-tert-butyl-1H-pyrazolo[3,4-d]pyrimidin-3-ol] | > 15 µM | > 15 µM | –
21 | CC(C)(C)n1nc(Oc2ncccn2)c2c(N)ncnc21 [compound 326] | > 15 µM | > 15 µM | –
22 | Nc1ncnc2c1c(-c1ccc(Cl)cc1)cn2Cc1ccccc1 [compound 327] | > 15 µM | < 2 µM | –
23 | CCn1cc(-c2ccc(Cl)cc2)c2c(NC(=O)NC(C)C)ncnc21 [compound 328] | > 15 µM | > 15 µM | –
24 | CC(C)(C)n1nc([S+]([O-])c2ccccn2)c2c(N)ncnc21 (centres unmarked) [compound 329] | > 15 µM | > 15 µM | –
25 | CC(C)(C)n1nc(Oc2ccccn2)c2c(N)ncnc21 [compound 330] | > 15 µM | > 15 µM | –
26 | CC(C)(C)n1nc(Oc2ccccc2[N+](=O)[O-])c2c(N)ncnc21 [compound 331] | > 15 µM | 2 to 5 µM | –
27 | CC(=O)C1CC(n2nc(Sc3ccccc3)c3c(N)ncnc32)C1 (centres unmarked) [compound 334] | > 15 µM | > 15 µM | –
28 | CC(C)(C)n1nc(-c2ccc(Cl)cc2)c2c(NC(=O)O[C@@H]3CCOC3)ncnc21 [compound 335] | 5 to 10 µM | > 15 µM | –
29 | CC(C)N1CCC(n2nc(-c3ccc(Cl)cc3)c3c(N)ncnc32)CC1 [compound 342] | > 15 µM | > 15 µM | –
30 | CC(C)(C)OC(=O)n1nc(Sc2cccc(Cl)c2)c2c(N)ncnc21 [compound 343] | > 15 µM | < 2 µM | –
31 | CC(=O)N1CC(n2nc(Sc3cccc(Cl)c3)c3c(N)ncnc32)C1 [compound 344] | > 15 µM | > 15 µM | –
32 | CCOC(=O)N1CC(n2nc(Sc3ccccc3)c3c(N)ncnc32)C1 [compound 347] | > 15 µM | > 15 µM | –
33 | CCn1nc([S+]([O-])c2ccccn2)c2c(N)ncnc21 (centres unmarked) [compound 353] | > 15 µM | 5 to 10 µM | –
34 | Nc1ncnc2c1c(-c1ccc(Cl)cc1)nn2C1CNC1 [compound 411] | > 15 µM | > 15 µM | –
35 | Nc1ncnc2c1c(-c1ccc(Cl)cc1)nn2C1CCNCC1 [compound 412] | > 15 µM | > 15 µM | –
36 | Nc1ncnc2c1c(Cc1cccc3ccccc13)nn2C1CNC1 [compound 413] | > 15 µM | > 15 µM | –

Further lines, with some results ahead:

Row | EC50 (ΔF508 CFTR [1]) | EC50 (ΔF508 CFTR [2]) | Structure (SMILES) | minimal effective concentration (ypt1^ts cells)
37 | < 2 µM | 2 to 5 µM | Nc1ncnc2c1c(-c1ccc(Cl)cc1)cn2CC(F)F [compound 290] | –
38 | < 2 µM | > 15 µM | CCn1cc(-c2ccc(Cl)cc2)c2c(NC(=O)c3ccc(C)cc3)ncnc21 [compound 298] | –
39 | < 2 µM | > 15 µM | CCn1cc(-c2ccc(Cl)cc2)c2c(NC(=O)c3ccc(F)cc3)ncnc21 [compound 299] | –
40 | < 2 µM | > 15 µM | CC(=O)N1CCC(n2nc(-c3ccc(Cl)cc3)c3c(N)ncnc32)CC1 [compound 302] | –
41 | 2 to 5 µM | > 15 µM | Nc1ncnc2c1c(-c1ccc(Cl)cc1)cn2CC(O)CF (centres unmarked) [compound 309] | –
42 | < 2 µM | > 15 µM | Cn1cc(-c2ccc(Cl)cc2)c2c(N)ncnc21 [compound 310] | –
43 | 2 to 5 µM | 5 to 10 µM | C=CCn1cc(-c2ccc(Cl)cc2)c2c(N)ncnc21 [compound 311] | –
44 | < 2 µM | 2 to 5 µM | CC(C)n1cc(-c2ccc(Cl)cc2)c2c(N)ncnc21 [compound 315] | –
45 | < 2 µM | < 2 µM | CC(C)(C)n1cc(-c2ccc(Cl)cc2)c2c(NC(=O)C3CCCC3)ncnc21 [compound 321] | –
46 | 2 to 5 µM | 2 to 5 µM | CCn1cc(-c2ccc(Cl)cc2)c2c(NC(=O)C(C)(C)C)ncnc21 [compound 322] | –
47 | < 2 µM | 5 to 10 µM | CCn1cc(-c2ccc(Cl)cc2)c2c(NC(=O)C(C)C)ncnc21 [compound 336] | –
48 | 2 to 5 µM | 2 to 5 µM | CC(C)(C)C(=O)Nc1ncnc2c1c(-c1ccc(Cl)cc1)cn2C(C)(C)C [compound 349] | –
49 | < 2 µM | > 15 µM | CCn1cc(-c2ccc(Cl)cc2)c2c(NC(=O)C3CCCC3)ncnc21 [compound 350] | –
50 | 2 to 5 µM | < 2 µM | CC(C)(C1CC1)n1cc(-c2ccc(Cl)cc2)c2c(N)ncnc21 [compound 351] | –
51 | < 2 µM | < 2 µM | CC(C)C(=O)Nc1ncnc2c1c(-c1ccc(Cl)cc1)cn2C(C)C [compound 352] | –
